System: acidiscabies and caviscabies
Test: Geldanamycin activity against other common scab causing species
Assay type: cell-based
Settings: data not shown

COC1=C2C[C@@H](C)C[C@H](OC)[C@H](O)[C@@H](C)/C=C(\C)[C@H](OC(N)=O)[C@@H](OC)/C=C\C=C(/C)C(=O)NC(=CC1=O)C2=O [Geldanamycin]
activity against other common scab causing bacterial species: active
